Test results reported in ChEMBL document CHEMBL4152318, “Halogenated quinolines bearing polar functionality at the 2-position: Identification of new antibacterial agents with enhanced activity against Staphylococcus epidermidis” (Eur J Med Chem, 2018).
Values after ≈ are worked out from the molar mass of the structure shown.

Experiments:
[1] = Selectivity ratio of MIC for methicillin-resistant Staphylococcus aureus BAA-1707 to MIC for methicillin-resistant Staphylococcus epidermidis ATCC 35984; type: functional
[2] = test system: Staphylococcus epidermidis; test: Antibacterial activity against methicillin-resistant Staphylococcus epidermidis ATCC 35984 after 16 to 18 hrs by broth microdilution method; type: functional
Staphylococcus aureus [3] = test: Antibacterial activity against methicillin-resistant Staphylococcus aureus BAA-1707 after 16 to 18 hrs by broth microdilution method; type: functional
Enterococcus faecium [4] = test: Antibacterial activity against vancomycin-resistant Enterococcus faecium ATCC 700221 after 16 to 18 hrs by broth microdilution method; type: functional
HeLa = test: Cytotoxicity against human HeLa cells after 24 hrs by LDH release assay; type: cell-based
[5] = Selectivity index, ratio of IC50 for cytotoxicity against human HeLa cells to MIC for antibacterial activity against methicillin-resistant Staphylococcus epidermidis ATCC 35984; type: toxicity, cell-based; conditions: read-out: Selectivity Index
[6] = test system: Staphylococcus epidermidis; test: Potency index, ratio of TPEN MIC to compound MIC for antibacterial activity against methicillin-resistant Staphylococcus epidermidis ATCC 35984; type: functional
Staphylococcus aureus [7] = test: Potency index, ratio of TPEN MIC to compound MIC for antibacterial activity against methicillin-resistant Staphylococcus aureus BAA-1707; type: functional
[8] = test system: Staphylococcus epidermidis; test: Bactericidal activity against methicillin-resistant Staphylococcus epidermidis ATCC 35984 planktonic cells after 24 hrs by CBD assay; type: functional; conditions: ATCC 35984, 24 h
[9] = test system: Staphylococcus epidermidis; test: Antibiofilm activity against methicillin-resistant Staphylococcus epidermidis ATCC 35984 after 24 hrs by CBD assay; type: functional
[10] = Hemolytic activity against human RBC at 200 uM after 1 hr relative to control; type: ADME, cell-based, Erythrocyte; conditions: red blood cells (erythrocytes), read-out: Activity
[11] = Selectivity ratio of MIC for vancomycin-resistant Enterococcus faecium ATCC 700221 to MIC for methicillin-resistant Staphylococcus epidermidis ATCC 35984; type: functional
Staphylococcus aureus [12] = test: Bactericidal activity against methicillin-resistant Staphylococcus aureus BAA-1707 planktonic cells after 24 hrs by CBD assay; type: functional; conditions: BAA-1707, 24 h
Staphylococcus aureus [13] = test: Antibiofilm activity against methicillin-resistant Staphylococcus aureus BAA-1707 after 24 hrs by CBD assay; type: functional
Enterococcus faecium [14] = test: Bactericidal activity against vancomycin-resistant Enterococcus faecium ATCC 700221 planktonic cells after 24 hrs by CBD assay; type: functional; conditions: ATCC 700221, 24 h
Enterococcus faecium [15] = test: Antibiofilm activity against vancomycin-resistant Enterococcus faecium ATCC 700221 after 24 hrs by CBD assay; type: functional

CCCCOCc1ccc2c(Br)cc(Br)c(O)c2n1
Selectivity ratio [1]: > 2 | MIC [2]: 0.3 µM (≈ 0.117 µg/mL) | MIC (Staphylococcus aureus [3]): 2.35 µM (≈ 0.914 µg/mL) | MIC (Enterococcus faecium [4]): 12.5 µM (≈ 4.86 µg/mL) | IC50 (HeLa): > 50 µM | selectivity ratio [5]: > 167 | Ratio [6]: 16 - 42 | Ratio (Staphylococcus aureus [7]): 16 - 42 | MBC [8]: 37.5 µM (≈ 14.6 µg/mL) | MBEC [9]: 75 µM | hemolysis at 1 h, 200 µM [10]: 2.8% | Selectivity ratio [11]: > 2

COCCOCCOCc1ccc2c(Br)cc(Br)c(O)c2n1
Selectivity ratio [1]: > 2 | MIC [2]: 0.78 µM (≈ 0.339 µg/mL) | MIC (Staphylococcus aureus [3]): 2.35 µM (≈ 1.02 µg/mL) | MIC (Enterococcus faecium [4]): 3.13 µM (≈ 1.36 µg/mL) | IC50 (HeLa): > 100 µM | selectivity ratio [5]: > 128 | Ratio [6]: 16 - 42 | Ratio (Staphylococcus aureus [7]): 16 - 42 | MBC [8]: 25 µM (≈ 10.9 µg/mL) | MBEC [9]: 75 µM | MBC (Staphylococcus aureus [12]): 50 µM (≈ 21.8 µg/mL) | MBEC (Staphylococcus aureus [13]): 200 µM | MBC (Enterococcus faecium [14]): 6.25 µM (≈ 2.72 µg/mL) | MBEC (Enterococcus faecium [15]): 2.35 µM | hemolysis at 1 h, 200 µM [10]: 4.1% | Selectivity ratio [11]: > 2

COCCOCCOCCOCc1ccc2c(Br)cc(Br)c(O)c2n1
MIC [2]: 2.35 µM (≈ 1.13 µg/mL) | MIC (Staphylococcus aureus [3]): 2.35 µM (≈ 1.13 µg/mL) | IC50 (HeLa): 100 µM

OCc1ccc2c(Br)cc(Br)c(O)c2n1
MIC [2]: 37.5 µM (≈ 12.5 µg/mL) | MIC (Staphylococcus aureus [3]): 100 µM (≈ 33.3 µg/mL) | MIC (Enterococcus faecium [4]): 25 µM (≈ 8.32 µg/mL) | IC50 (HeLa): > 100 µM | selectivity ratio [5]: > 2.7

Oc1c(Br)cc(Br)c2ccc(CN3CCOCC3)nc12
Selectivity ratio [1]: > 2 | MIC [2]: 0.59 µM (≈ 0.237 µg/mL) | MIC (Staphylococcus aureus [3]): 1.56 µM (≈ 0.627 µg/mL) | MIC (Enterococcus faecium [4]): 3.13 µM (≈ 1.26 µg/mL) | IC50 (HeLa): > 100 µM | selectivity ratio [5]: > 169 | Ratio [6]: 16 - 42 | Ratio (Staphylococcus aureus [7]): 16 - 42 | MBC [8]: 4.69 µM (≈ 1.89 µg/mL) | MBEC [9]: 2.35 µM | MBC (Staphylococcus aureus [12]): 25 µM (≈ 10.1 µg/mL) | MBEC (Staphylococcus aureus [13]): >200 µM | MBC (Enterococcus faecium [14]): 1.56 µM (≈ 0.627 µg/mL) | MBEC (Enterococcus faecium [15]): 1.17 µM | hemolysis at 1 h, 200 µM [10]: 2.6% | Selectivity ratio [11]: > 2

COCCOCc1ccc2c(Br)cc(Br)c(O)c2n1
MIC [2]: 1.56 µM (≈ 0.61 µg/mL) | IC50 (HeLa): > 100 µM

OCc1cn(Cc2ccc3c(Br)cc(Br)c(O)c3n2)nn1
MIC [2]: > 100 µM | MIC (Staphylococcus aureus [3]): > 100 µM | MIC (Enterococcus faecium [4]): > 100 µM

C[C@H](NC(=O)OC(C)(C)C)C(=O)N1CCN(Cc2ccc3c(Br)cc(Br)c(O)c3n2)CC1
MIC [2]: 3.13 µM (≈ 1.79 µg/mL) | MIC (Staphylococcus aureus [3]): 3.13 µM (≈ 1.79 µg/mL) | MIC (Enterococcus faecium [4]): 6.25 µM (≈ 3.58 µg/mL)

C#CCNCc1ccc2c(Br)cc(Br)c(O)c2n1
Selectivity ratio [1]: > 2 | MIC [2]: 0.3 µM (≈ 0.111 µg/mL) | MIC (Staphylococcus aureus [3]): 3.13 µM (≈ 1.16 µg/mL) | MIC (Enterococcus faecium [4]): 1.56 µM (≈ 0.577 µg/mL) | IC50 (HeLa): > 25 µM | selectivity ratio [5]: > 83 | Ratio [6]: 16 - 42 | Ratio (Staphylococcus aureus [7]): 16 - 42 | Selectivity ratio [11]: > 2

CC(C)(C)OC(=O)NCC(=O)N1CCN(Cc2ccc3c(Br)cc(Br)c(O)c3n2)CC1
MIC [2]: 9.38 µM (≈ 5.24 µg/mL) | MIC (Staphylococcus aureus [3]): 25 µM (≈ 14 µg/mL) | MIC (Enterococcus faecium [4]): 12.5 µM (≈ 6.98 µg/mL)

NCCOCCOCCNCc1ccc2c(Br)cc(Br)c(O)c2n1
MIC [2]: 25 µM (≈ 11.6 µg/mL) | MIC (Staphylococcus aureus [3]): 37.5 µM (≈ 17.4 µg/mL) | MIC (Enterococcus faecium [4]): 50 µM (≈ 23.2 µg/mL)

c1ccc(CN(CCN(Cc2ccccn2)Cc2ccccn2)Cc2ccccn2)nc1
MIC [2]: 12.5 µM (≈ 5.31 µg/mL) | MIC (Staphylococcus aureus [3]): 46.9 µM (≈ 19.9 µg/mL) | MBC [8]: 250 µM (≈ 106 µg/mL) | MBEC [9]: >2000 µM | MBC (Staphylococcus aureus [12]): 375 µM (≈ 159 µg/mL) | MBEC (Staphylococcus aureus [13]): >2000 µM | hemolysis at 1 h, 200 µM [10]: ≤ 1%

Oc1c(Br)cc(Br)c2ccc(CN3CCNCC3)nc12
MIC [2]: 12.5 µM (≈ 5.01 µg/mL) | MIC (Staphylococcus aureus [3]): 25 µM (≈ 10 µg/mL) | MIC (Enterococcus faecium [4]): 50 µM (≈ 20.1 µg/mL)

CN[C@H](CC(C)C)C(=O)N[C@H]1C(=O)N[C@@H](CC(N)=O)C(=O)N[C@H]2C(=O)N[C@H]3C(=O)N[C@H](C(=O)N[C@H](C(=O)O)c4cc(O)cc(O)c4-c4cc3ccc4O)[C@H](O)c3ccc(c(Cl)c3)Oc3cc2cc(c3O[C@@H]2O[C@H](CO)[C@@H](O)[C@H](O)[C@H]2O[C@H]2C[C@](C)(N)[C@H](O)[C@H](C)O2)Oc2ccc(cc2Cl)[C@H]1O [VANCOMYCIN]
MIC (Enterococcus faecium [4]): > 100 µM | MBC [8]: 3 µM (≈ 4.35 µg/mL) | MBEC [9]: >2000 µM | MBC (Staphylococcus aureus [12]): 3.9 µM (≈ 5.65 µg/mL) | MBEC (Staphylococcus aureus [13]): >2000 µM | MBC (Enterococcus faecium [14]): > 200 µM | MBEC (Enterococcus faecium [15]): 150 µM | hemolysis at 1 h, 200 µM [10]: ≤ 1%

CC(C)(C)OC(=O)NCCOCCOCCNCc1ccc2c(Br)cc(Br)c(O)c2n1
MIC [2]: 3.13 µM (≈ 1.76 µg/mL) | MIC (Staphylococcus aureus [3]): 12.5 µM (≈ 7.04 µg/mL) | MIC (Enterococcus faecium [4]): 6.25 µM (≈ 3.52 µg/mL)

CCCc1ccc2c(Br)cc(Br)c(O)c2n1
MIC [2]: 0.59 µM (≈ 0.204 µg/mL) | MIC (Staphylococcus aureus [3]): 0.39 µM (≈ 0.135 µg/mL) | MIC (Enterococcus faecium [4]): 0.78 µM (≈ 0.269 µg/mL) | IC50 (HeLa): > 50 µM | selectivity ratio [5]: > 85

CCCNCc1ccc2c(Br)cc(Br)c(O)c2n1
MIC (Staphylococcus aureus [3]): 2.35 µM (≈ 0.879 µg/mL) | MIC (Enterococcus faecium [4]): 3.13 µM (≈ 1.17 µg/mL) | IC50 (HeLa): > 100 µM

CC(C)(C)OC(=O)N1CCN(Cc2ccc3c(Br)cc(Br)c(O)c3n2)CC1
MIC [2]: 0.3 µM (≈ 0.15 µg/mL) | MIC (Staphylococcus aureus [3]): 0.78 µM (≈ 0.391 µg/mL) | MIC (Enterococcus faecium [4]): 0.59 µM (≈ 0.296 µg/mL) | IC50 (HeLa): > 100 µM | selectivity ratio [5]: > 333 | MBC [8]: 37.5 µM (≈ 18.8 µg/mL) | MBEC [9]: 6.25 µM | MBC (Staphylococcus aureus [12]): 18.8 µM (≈ 9.42 µg/mL) | MBEC (Staphylococcus aureus [13]): 18.8 µM | MBC (Enterococcus faecium [14]): 4.69 µM (≈ 2.35 µg/mL) | MBEC (Enterococcus faecium [15]): 1.56 µM | hemolysis at 1 h, 200 µM [10]: 2.8%

CC(=O)NC[C@H]1CN(c2ccc(N3CCOCC3)c(F)c2)C(=O)O1 [LINEZOLID]
MIC [2]: 3.13 µM (≈ 1.06 µg/mL) | MIC (Staphylococcus aureus [3]): 12.5 µM (≈ 4.22 µg/mL) | MIC (Enterococcus faecium [4]): 3.13 µM (≈ 1.06 µg/mL)

CCCCCCCCCC(=O)N[C@@H](Cc1c[nH]c2ccccc12)C(=O)N[C@@H](CC(N)=O)C(=O)N[C@@H](CC(=O)O)C(=O)N[C@@H]1C(=O)NCC(=O)N[C@@H](CCCN)C(=O)N[C@@H](CC(=O)O)C(=O)N[C@H](C)C(=O)N[C@@H](CC(=O)O)C(=O)NCC(=O)N[C@H](CO)C(=O)N[C@@H]([C@H](C)CC(=O)O)C(=O)N[C@@H](CC(=O)c2ccccc2N)C(=O)O[C@@H]1C [DAPTOMYCIN]
MIC [2]: 12.5 µM (≈ 20.3 µg/mL) | MIC (Staphylococcus aureus [3]): 3.13 µM (≈ 5.07 µg/mL) | MIC (Enterococcus faecium [4]): 3.13 µM (≈ 5.07 µg/mL)

Oc1c(Br)cc(Br)c2ccc(CNc3ccccc3)nc12
MIC [2]: 0.15 µM (≈ 0.0612 µg/mL) | MIC (Staphylococcus aureus [3]): 0.39 µM (≈ 0.159 µg/mL) | MIC (Enterococcus faecium [4]): 0.78 µM (≈ 0.318 µg/mL) | IC50 (HeLa): 100 µM | selectivity ratio [5]: 667

Cc1ccc2c(Br)cc(Br)c(O)c2n1 [BROQUINALDOL]
MIC [2]: 1.17 µM (≈ 0.371 µg/mL) | MIC (Enterococcus faecium [4]): 3.13 µM (≈ 0.992 µg/mL) | IC50 (HeLa): > 100 µM
